These are literature values, as cited in patent US8618022B2, “Process for preparing an aqueous suspension of an organic pesticide compound” (priority 2009, dated 2013).

Structures are written as SMILES. Values after ≈ are worked out from the molar mass of the structure shown.

The conditions of one data set: at 20° C.
Turning to `COC(=O)N(OC)c1ccccc1COc1ccn(-c2ccc(Cl)cc2)n1` [pyraclostrobin, methyl {2-[1-(4-chlorophenyl)pyrazol-3-yloxymethyl]phenyl}-(methoxy)carbamate], the solubility in water was under 2 µg/mL.

The data set is the same for the next values; noted with them: deionised water at 20° C.
`Cc1c(COC(=O)[C@@H]2[C@H](/C=C(\Cl)C(F)(F)F)C2(C)C)cccc1-c1ccccc1` (racemic) [bifenthrin]: the water solubility is 0.1 mg/L (≈ 0.236 µM).

For `ClC1=C(Cl)C2(Cl)C3C4C=CC(C4)C3C1(Cl)C2(Cl)Cl` (stereo not shown) [aldrin], the water solubility is recorded as <<1 mg/l.

As for `CCCCN(CC)c1c([N+](=O)[O-])cc(C(F)(F)F)cc1[N+](=O)[O-]` [benfluralin], the water solubility is under 1 mg/L.

For `COP(=S)(OC)Oc1cc(Cl)c(Br)cc1Cl` [bromophos], the water solubility is 40 mg/L (≈ 109 µM).

Take `CC(C)OC(=O)C(O)(c1ccc(Br)cc1)c1ccc(Br)cc1` [bromopropylate]: the water solubility was under 5 mg/L.

In the case of `CCOP(=S)(OCC)ON=C(C#N)c1ccccc1Cl` [chlorphoxim], the water solubility was 2 mg/L (≈ 6.01 µM).

Take `CCOP(=S)(OCC)Oc1nc(Cl)c(Cl)cc1Cl` [chlorpyriphos]: the water solubility was 2 mg/L (≈ 5.7 µM).

For the molecule `CC1(C)CCC(Cc2ccc(Cl)cc2)C1(O)Cn1cncn1` (stereo not shown) [metconazol], the water solubility is 1400 mg/L (≈ 4380 µM).

On to `CC(C)OC(=O)c1cc(C(=O)OC(C)C)cc([N+](=O)[O-])c1` [nitrothal-isopropyl], for which the water solubility was 0.4 mg/L (≈ 1.35 µM).

With `COP(=S)(OC)SCN1C(=O)c2ccccc2C1=O` [phosmet], the water solubility was 25 mg/L (≈ 78.8 µM).

In the case of `O=C(Nc1ccc(F)cc1)c1cccc(Oc2cccc(C(F)(F)F)c2)n1` [picolinafen], the water solubility was under 0.1 mg/L.

For the molecule `CO/C=C(/C(=O)OC)c1ccccc1COc1cccc(C(F)(F)F)n1` [picoxystrobin], the water solubility is 3.1 mg/L (≈ 8.44 µM).
